Assay results: publication PMC11322065, “N-demethylsinomenine metabolite and its prototype sinomenine activate mast cells via MRGPRX2 and aggravate anaphylaxis” (Frontiers in Pharmacology, 2024)
Counter-ions that a name gives are not always drawn.

Target: T1, MRGPRX2 (Homo sapiens, UniProt Q96LB1)
T1 sequence (Q96LB1 1-330): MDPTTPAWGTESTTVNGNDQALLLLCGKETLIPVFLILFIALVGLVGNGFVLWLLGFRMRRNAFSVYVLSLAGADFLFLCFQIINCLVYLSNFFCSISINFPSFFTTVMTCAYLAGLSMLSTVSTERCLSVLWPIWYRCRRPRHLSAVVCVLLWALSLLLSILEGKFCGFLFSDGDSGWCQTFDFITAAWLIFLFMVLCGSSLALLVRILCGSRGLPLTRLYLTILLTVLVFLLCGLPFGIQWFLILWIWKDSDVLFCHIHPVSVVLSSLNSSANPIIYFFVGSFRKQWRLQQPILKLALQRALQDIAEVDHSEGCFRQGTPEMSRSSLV
Experiment: SPR, MRGPRX2 protein immobilised on CM5 chip
Type: binding

| Structure (SMILES) | Kd [µM] |
| --- | --- |
| COC1=C[C@@H]2[C@@H]3Cc4ccc(OC)c(O)c4[C@]2(CCN3C)CC1=O [SH, sinomenine hydrochloride] | 0.681 |
| COC1=C[C@@H]2[C@@H]3Cc4ccc(OC)c(O)c4[C@]2(CCN3)CC1=O [M-3, N-demethylsinomenine] | 7.58 |
